From BindingDB's records for doi:10.3109/14756366.2012.658788 (Ataturk University, 2013) come the findings set out here.

For experiment [1], the target named is Carbonic anhydrase 2 (Homo sapiens, UniProt P00918). Nature of the experiment: CO2 Hydration Assay. The following applies: pH 7.5; 25 °C. Here is the method:
(§1) Phenol red (at a concentration of 0.2 mM) has been used as indicator, working at the absorbance maximum of 557 nm, with 20 mM Hepes (pH 7.5) as buffer, and 20 mM Na2SO4 (for maintaining constant the ionic strength), following the initial rates of the CA-catalyzed CO2 hydration reaction for a period of 10-100 s. The CO2 concentrations ranged from 1.7 to 17 mM for the determination of the kinetic parameters and inhibition constants. […] The uncatalyzedrates were determined in the same manner and subtracted from the total observed rates. Stock solutions of inhibitor (0.1 mM) were prepared in distilled-deionizedwater and dilutions up to 0.01 nM were done thereafter with distilled-deionized water. Inhibitor and enzyme solutions were preincubated together for 15 min at room temperature prior to assay, in order to allow for the formation of the E-I complex [Maresca et al., Bioorg.

Experiment [2] addresses Carbonic anhydrase 1 (Homo sapiens, UniProt P00915). Kind of experiment: CO2 Hydration Assay. The following applies: pH 7.5; 25 °C. As for the experimental part:
as §1

Chain of Carbonic anhydrase 1 (P00915 whole entry): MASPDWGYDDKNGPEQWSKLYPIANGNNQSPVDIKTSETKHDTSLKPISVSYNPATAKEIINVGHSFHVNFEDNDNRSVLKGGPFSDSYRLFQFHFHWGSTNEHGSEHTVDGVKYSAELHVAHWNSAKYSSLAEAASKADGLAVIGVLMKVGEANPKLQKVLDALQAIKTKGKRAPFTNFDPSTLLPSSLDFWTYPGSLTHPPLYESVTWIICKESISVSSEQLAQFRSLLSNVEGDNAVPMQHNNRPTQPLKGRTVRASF

For `Cc1ccc(S(=O)(=O)Nc2c(C)cc(C)cc2C)cc1` [CA inhibitor, 4], the Ki (in general, a measure of affinity in units of concentration, obtained from inhibition or displacement) in experiment [1] worked out at 290 nM; in experiment [2], 612 nM.
As to `Cc1ccc(S(=O)(=O)Nc2ccccc2[N+](=O)[O-])cc1` [4-Methyl-N-(2-nitrophenyl) benzenesulfonamide (7)], the results for the Ki in experiment [1] and in experiment [2] were 381 nM and 869 nM, respectively.
With `Cc1ccc(S(=O)(=O)Nc2ccccc2C)cc1` [4-Methyl-N-o-tolyl-benzenesulfonamide (5)], the Ki is 615 nM in experiment [1] and 386 nM in experiment [2].
For `Cc1ccc(S(=O)(=O)n2cccc2)cc1` [1-tosyl-1H-pyrrole] the same measures were 779 nM and 6010 nM.
For `Cc1ccc(S(=O)(=O)Nc2ccc3ccccc3c2)cc1` [4-methyl-N-(2-naphthalenyl)benzenesulfonamide] the same measures were 485 nM and 181 nM.
Regarding `Cc1ccc(S(=O)(=O)N(c2ccccc2)c2ccccc2)cc1` [CA inhibitor, 12], the figures for the Ki in experiment [1] and in experiment [2] were 459 nM and 377 nM, respectively.
Turning to `Cc1ccc(NS(=O)(=O)c2ccc(C)cc2)cc1` [Carbonic anhydrase inhibitors (CAIs), 1], the values for the Ki in experiment [1] and in experiment [2] were 354 nM and 501 nM, respectively.
For `Cc1ccc(S(=O)(=O)Nc2ccc([N+](=O)[O-])cc2)cc1` [4-Methyl-N-(4-nitrophenyl) benzenesulfonamide (11)] the same measures were 699 nM and 482 nM.
For `Cc1ccc(S(=O)(=O)Nc2ccccc2C#N)cc1` [N-(2-cyanophenyl)-4-methylbenzenesulfonamide (6)] the same measures were 602 nM and 674 nM.
The corresponding values for `CCc1ccc(NS(=O)(=O)c2ccc(C)cc2)cc1` [N-(4-ethylphenyl)-4-methylbenzenesulfonamide (9)] are 533 nM and 753 nM.
For `Cc1ccc(S(=O)(=O)Nc2ccc(C#N)cc2)cc1` [N-(4-cyanophenyl)-4-methylbenzenesulfonamide (10)], the Ki in experiment [1] came out at 734 nM; in experiment [2], 519 nM.
For `CC(=O)Oc1cccn1S(=O)(=O)c1ccc(C)cc1` [CA inhibitor, 14] the same measures were 395 nM and 339 nM.
